Experiment: Biodistribution assay of 18F-labelled ligand
Assay type: in vivo, mouse
Settings: mice
Method: Biodistribution and excretion studies for ligands were performed in male NMRI mice (body weight app. 30 g; 3 animals per time point). The animals were kept under normal laboratory conditions at a temperature of 22±2° C. and a dark/light rhythm of 12 hours. Food and water were provided ad libitium. During an acclimatisation period of at least 3 days before the beginning of the study, animals were clinically examined to ascertain the absence of abnormal clinical signs. At 2, 5, 30, 60 and 120 min post intravenous injection via the tail vein of ca. 150 kBq in 100 μl of the test compound, urine and faeces were quantitatively collected. At the same time points, animals were anaesthetised with isoflurane, sacrificed by decapitation and the following organs and tissues were removed for the determination of radioactivity using a gamma-counter: spleen, liver, kidney, lung, bone, heart, brain, fat, thyroid, muscle, skin, blood, tail, stomach (without content), testicle, intestine (with content), pancreas, adrenals, skull, and the remaining body. For the analysis, the decay corrected percentage of the injected dose per tissue weight (% ID/g±standard deviation) was calculated.

COc1ccc2nc(-c3ccc(NC(=O)c4ccc([18F])nc4)cc3)sc2c1 [SKT04-137, 6-[^18F]Fluoro-N-[4-(6-methoxy-benzothiazol-2-yl)-phenyl]-nicotinamide]
% ID/g (Adrenals, 2 min post i.v.): 10.84 % ID/g
% ID/g (Adrenals, 5 min post i.v.): 9.59 % ID/g
% ID/g (Adrenals, 30 min post i.v.): 5.62 % ID/g
% ID/g (Adrenals, 60 min post i.v.): 2.83 % ID/g
% ID/g (Adrenals, 120 min post i.v.): 1.04 % ID/g
% ID/g (Blood, 2 min post i.v.): 1.69 % ID/g
% ID/g (Blood, 5 min post i.v.): 1.12 % ID/g
% ID/g (Blood, 30 min post i.v.): 0.74 % ID/g
% ID/g (Blood, 60 min post i.v.): 0.39 % ID/g
% ID/g (Blood, 120 min post i.v.): 0.16 % ID/g
% ID/g (Bone, 2 min post i.v.): 1.54 % ID/g
% ID/g (Bone, 5 min post i.v.): 1.50 % ID/g
% ID/g (Bone, 30 min post i.v.): 1.20 % ID/g
% ID/g (Bone, 60 min post i.v.): 1.96 % ID/g
% ID/g (Bone, 120 min post i.v.): 1.65 % ID/g
% ID/g (Brain, 2 min post i.v.): 3.99 % ID/g
% ID/g (Brain, 5 min post i.v.): 3.54 % ID/g
% ID/g (Brain, 30 min post i.v.): 3.19 % ID/g
% ID/g (Brain, 60 min post i.v.): 1.43 % ID/g
% ID/g (Brain, 120 min post i.v.): 0.60 % ID/g
% ID/g (Fat, 2 min post i.v.): 1.25 % ID/g
% ID/g (Fat, 5 min post i.v.): 1.57 % ID/g
% ID/g (Fat, 30 min post i.v.): 7.21 % ID/g
% ID/g (Fat, 60 min post i.v.): 4.51 % ID/g
% ID/g (Fat, 120 min post i.v.): 1.76 % ID/g
% ID/g (Heart, 2 min post i.v.): 6.68 % ID/g
% ID/g (Heart, 5 min post i.v.): 3.72 % ID/g
% ID/g (Heart, 30 min post i.v.): 1.62 % ID/g
% ID/g (Heart, 60 min post i.v.): 0.81 % ID/g
% ID/g (Heart, 120 min post i.v.): 0.39 % ID/g
% ID/g (Intestine, 2 min post i.v.): 1.99 % ID/g
% ID/g (Intestine, 5 min post i.v.): 2.45 % ID/g
% ID/g (Intestine, 30 min post i.v.): 9.36 % ID/g
% ID/g (Intestine, 60 min post i.v.): 17.43 % ID/g
% ID/g (Intestine, 120 min post i.v.): 20.08 % ID/g
% ID/g (Kidney, 2 min post i.v.): 9.60 % ID/g
% ID/g (Kidney, 5 min post i.v.): 7.10 % ID/g
% ID/g (Kidney, 30 min post i.v.): 6.38 % ID/g
% ID/g (Kidney, 60 min post i.v.): 3.78 % ID/g
% ID/g (Kidney, 120 min post i.v.): 1.49 % ID/g
% ID/g (Liver, 2 min post i.v.): 11.52 % ID/g
% ID/g (Liver, 5 min post i.v.): 13.30 % ID/g
% ID/g (Liver, 30 min post i.v.): 7.03 % ID/g
% ID/g (Liver, 60 min post i.v.): 4.26 % ID/g
% ID/g (Liver, 120 min post i.v.): 2.41 % ID/g
% ID/g (Lung, 2 min post i.v.): 6.91 % ID/g
% ID/g (Lung, 5 min post i.v.): 4.55 % ID/g
% ID/g (Lung, 30 min post i.v.): 1.83 % ID/g
% ID/g (Lung, 60 min post i.v.): 0.97 % ID/g
% ID/g (Lung, 120 min post i.v.): 0.40 % ID/g
% ID/g (Muscle, 2 min post i.v.): 1.98 % ID/g
% ID/g (Muscle, 5 min post i.v.): 1.80 % ID/g
% ID/g (Muscle, 30 min post i.v.): 1.11 % ID/g
% ID/g (Muscle, 60 min post i.v.): 0.63 % ID/g
% ID/g (Muscle, 120 min post i.v.): 0.20 % ID/g
% ID/g (Pancreas, 2 min post i.v.): 4.34 % ID/g
% ID/g (Pancreas, 5 min post i.v.): 3.17 % ID/g
% ID/g (Pancreas, 30 min post i.v.): 1.74 % ID/g
% ID/g (Pancreas, 60 min post i.v.): 1.11 % ID/g
% ID/g (Pancreas, 120 min post i.v.): 0.33 % ID/g
% ID/g (Skin, 2 min post i.v.): 1.01 % ID/g
% ID/g (Skin, 5 min post i.v.): 1.28 % ID/g
% ID/g (Skin, 30 min post i.v.): 1.87 % ID/g
% ID/g (Skin, 60 min post i.v.): 1.11 % ID/g
% ID/g (Skin, 120 min post i.v.): 0.45 % ID/g
% ID/g (Skull, 2 min post i.v.): 1.93 % ID/g
% ID/g (Skull, 5 min post i.v.): 1.28 % ID/g
% ID/g (Skull, 30 min post i.v.): 0.95 % ID/g
% ID/g (Skull, 60 min post i.v.): 1.44 % ID/g
% ID/g (Skull, 120 min post i.v.): 1.04 % ID/g
% ID/g (Spleen, 2 min post i.v.): 2.95 % ID/g
% ID/g (Spleen, 5 min post i.v.): 2.44 % ID/g
% ID/g (Spleen, 30 min post i.v.): 1.19 % ID/g
% ID/g (Spleen, 60 min post i.v.): 0.60 % ID/g
% ID/g (Spleen, 120 min post i.v.): 0.30 % ID/g
% ID/g (Stomach, 2 min post i.v.): 3.67 % ID/g
% ID/g (Stomach, 5 min post i.v.): 2.28 % ID/g
% ID/g (Stomach, 30 min post i.v.): 2.48 % ID/g
% ID/g (Stomach, 60 min post i.v.): 2.17 % ID/g
% ID/g (Stomach, 120 min post i.v.): 0.98 % ID/g
% ID/g (Tail, 2 min post i.v.): 15.89 % ID/g
% ID/g (Tail, 5 min post i.v.): 7.40 % ID/g
% ID/g (Tail, 30 min post i.v.): 3.74 % ID/g
% ID/g (Tail, 60 min post i.v.): 7.70 % ID/g
% ID/g (Tail, 120 min post i.v.): 4.93 % ID/g
% ID/g (Testes, 2 min post i.v.): 0.97 % ID/g
% ID/g (Testes, 5 min post i.v.): 1.10 % ID/g
% ID/g (Testes, 30 min post i.v.): 1.68 % ID/g
% ID/g (Testes, 60 min post i.v.): 1.18 % ID/g
% ID/g (Testes, 120 min post i.v.): 0.61 % ID/g
% ID/g (Thyroid, 2 min post i.v.): 3.97 % ID/g
% ID/g (Thyroid, 5 min post i.v.): 2.59 % ID/g
% ID/g (Thyroid, 30 min post i.v.): 1.06 % ID/g
% ID/g (Thyroid, 60 min post i.v.): 0.59 % ID/g
% ID/g (Thyroid, 120 min post i.v.): 0.37 % ID/g
brain washout (i.v., 60 min vs 2 min): 64%
brain uptake (i.v., after 2 min): 3.99 % injected dose/g tissue
brain level (i.v., after 60 min): 1.43 % injected dose/g tissue

— patent US8895313B2, “Ligands for aggregated tau molecules” (Wista Laboratories Ltd., priority 2008, dated 2014)
